Laboratory results published in US20230233531A1, “USE OF NON-STEROIDAL ANTI-INFLAMMATORY COMPOUNDS FOR TREATMENT OF INFLAMMATION” (University of Houston System, priority 2022, published 2023).
“Also recorded” adds a separate entry of the source.

What was measured:
[1] = system: carrageenan-induced paw inflammation; experiment: Carrageenan-induced paw inflammation/edema in BABL-c mice; format: in vivo; conditions: for inflammatory edema (paw volume quantitation): 50 mg/kg intramuscular 10 min before carrageenan, vs saline control; for inflammatory edema (paw volume quantitation) / time course of paw volume: 50 mg/kg; for paw thickness: 50 mg/kg intramuscular, vs control group; for time course of paw volume: 0-6 h after carrageenan
Experimental: (§1) Animals. The adult CD-1 mice (18-20 g) and BABL-c (18-20 g) were purchase from Envigo Plus vendor (USA) and used in this study. The mice were hosted under standard condition (23±2° C.; 12 h/12 h light/dark cycle; 50% humidity). The protocol was approved by Institutional Animal Care and Use Committee (IACUC). And all procedures were conducted according to IACUC. After all the experiments, the animals were euthanized with CO2 under the procedure of IACUC. Injections of compounds. The synthesized compounds to be tested were injected 10 mins before carrageenan injection. All the compounds were freshly prepared. All the compounds were dissolved in PBS and totally dissolved after ultrasonic. The compounds were injected with 26-G sterile needle via intramuscular injection. After immobilizing the mice, the hind limb was immobilized with the little finger and the then, the injection site was disinfected with 70% alcohol, and the needle was inserted into the root of the hindlimb at an angle of 45 degrees. The needle plug was withdrawn to make sure there was no injection into the blood vessel. If there was no blood return, the compounds were injected slowly. The mice were place back to their cages for 10 mins before the next step. Procedures for establishing of paw inflammation. The procedure of establishing inflammation mice model and the procedure of measurement of paw edema were describe as follow: 1% lambda-carrageenan was freshly prepared before injection. Carrageenan powder was first dissolved in cold PBS and vortexed for 5 times. Then the mixture was placed in 50° C. water for 5 mins until all the milky white matrix dissolved completely. […]*3⁄8 (0.45 mm*10 mm) sterile needle was used for injection. Carrageenan was subcutaneous injected slowly into the middle of the mice left hind paw. The time of injection Carrageenan was count as the start time point (0 h) and the paw swelling size was recorded as paw thickness and paw edema volume. Establishing of Carrageenan-induced Inflammatory Paw Edema Mice Model. […] The carrageenan-induced paw edema inflammation is a well-defined model of acute inflammation. It is widely and commonly used for evaluating the effectiveness of inhibitors of prostaglandin synthesis. Carrageenan is a complex of polysaccharides that functions in stimulating the expressions of COX-2 and mPGES-1 to release the proinflammatory mediator, PGE2, and its downstream factors, such as bradykinin, histamine, tachykinins, reactive oxygen, and nitrogen species. In this study, to induce acute inflammation, a single dose of 25 μl of 1% solution of λ-carrageenan was injected subcutaneously into the pad area of the hairless skin on the underside of the left hind paw (FIG. 1A). The injection was performed using a 26-gauge needle targeting the center of the plantar region. The administration of leading compounds and the positive control group, Celebrex, and the negative control saline occurred 10 minutes prior to the λ-carrageenan […] injection. To obtain the anti-inflammatory data, the animal condition was monitored hourly and paw-edema volume and thickness were measured hourly from 0 h to 6 h and again at 24 h, the injection of λ-carrageenan was counted as 0 h (FIG. 1B). After 24 h, local blood was collected from the hind paw of the mice for the next step assay to determine the PGE2 and PGI2 levels. Tissue samples, including the stomach and kidney, were collected after euthanization. The BABL-c mice were arranged into three groups: A. Control (Ctl) group: 50 μl saline; B. 2Me group: 50 mg/kg, 50 ul; C. 3-F group: 50 mg/kg, 50 ul. the CD-1 mice were arranged into 6 groups: A. Control (Ctl) group: saline 50 ul; B. 2-Me group: 50 mg/kg, 50 ul; C. 3-F group: 50 mg/kg, 50 ul; D: 2-Me group: 10 mg/kg, 50 ul; E. 3-F group: 10 mg/kg, 50 ul; F. Celebrex group: 50 mg/kg, 50 ul. Establishing measurements of the carrageenan-induced acute inflammation/edema. […]

[2] = system: carrageenan-induced paw inflammation; experiment: Carrageenan-induced paw inflammation/edema in CD-1 mice; format: in vivo; conditions: for dose-dependent anti-inflammatory activity, paw thickness: 10 mg/kg vs 50 mg/kg; for dose-dependent anti-inflammatory activity, paw edema volume: 10 mg/kg vs 50 mg/kg, 2, 4 and 6 h; for paw thickness increase / paw volume increase: 50 mg/kg intramuscular, vs control group; for paw volume increase: 50 mg/kg
Experimental: as §1

[3] = target: T1, COX-2-10aa-mPGES-1 (Homo sapiens, UniProt O14684+P35354); experiment: Enzymelink COX-2-10aa-mPGES-1 high through-put screening; format: biochemical; conditions: cross-filtered between mPGES-1, PGIS and COX-2 with AA as substrate
T1 construct: made in house
T1 sequence (P35354+O14684 with tags, fused parts or gaps): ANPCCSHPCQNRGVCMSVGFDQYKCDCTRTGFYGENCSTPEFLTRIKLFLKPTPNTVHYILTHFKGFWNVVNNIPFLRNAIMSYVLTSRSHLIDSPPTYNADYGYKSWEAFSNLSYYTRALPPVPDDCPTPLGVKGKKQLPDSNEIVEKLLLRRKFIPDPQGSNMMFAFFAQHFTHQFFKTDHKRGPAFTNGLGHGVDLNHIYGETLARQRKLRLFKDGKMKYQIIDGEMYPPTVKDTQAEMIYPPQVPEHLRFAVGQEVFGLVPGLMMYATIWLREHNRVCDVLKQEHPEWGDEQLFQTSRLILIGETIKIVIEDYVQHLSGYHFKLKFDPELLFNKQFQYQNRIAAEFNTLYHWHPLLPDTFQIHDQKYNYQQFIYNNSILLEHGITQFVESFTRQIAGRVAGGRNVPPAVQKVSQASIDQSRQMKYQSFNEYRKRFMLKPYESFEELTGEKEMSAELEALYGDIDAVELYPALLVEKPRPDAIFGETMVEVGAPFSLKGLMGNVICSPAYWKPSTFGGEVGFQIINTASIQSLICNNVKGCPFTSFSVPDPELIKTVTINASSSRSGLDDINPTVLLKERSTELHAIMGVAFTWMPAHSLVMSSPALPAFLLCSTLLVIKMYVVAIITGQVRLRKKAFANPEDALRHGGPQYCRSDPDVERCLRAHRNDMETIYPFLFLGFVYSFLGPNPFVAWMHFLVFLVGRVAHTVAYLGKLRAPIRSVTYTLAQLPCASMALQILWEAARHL
From the text: There is an urgent need for new anti-inflammatory drugs with less the adverse effects in clinical practice. Developing drugs which inhibit mPGES-1 without affecting other COX downstream synthases to only decrease PGE2 level at inflammation site is an ideal therapeutic strategy to treat inflammatory diseases. By successfully establishing a system of single-chain Enzymelinks of the upstream COX-2 and the downstream mPGES-1 thread by a 10 amino acid (AA) bio-linker (COX-2-10aa-mPGES-1 [9,11]), one can mimic endogenous inflammatory PGE2 biosynthesis without affecting COX-2 coupling to other enzyme synthases, for example, PGIS. This kind of Enzymelink has a kinetic advantage for converting the initial substrate, AA, to pro-inflammatory PGE2 via a triple catalytic reaction due to the shorter distance between the catalytic domain of the two enzymes within a single polypeptide chain. By this method, it was possible to reduce the interference with the mPGES-1 inhibitor screen, such as the nonspecific inhibition and cross-inhibition of PGIS, by avoiding the use of the unstable intermediate PGH2 as the initial substrate for PGE2 biosynthesis. At the same time, another Enzymelink, COX-2-10aa-PGIS was established in order to verify that the screen compound will not affect PGI2 synthesis. […]

Row | Structure (SMILES) | inflammatory edema (paw volume quantitation) [1] | paw thickness [1] | time course of paw volume [1] | dose-dependent anti-inflammatory activity, paw thickness [2] | dose-dependent anti-inflammatory activity, paw edema volume [2] | paw thickness increase [2] | paw volume increase [2] | selectivity for mPGES-1 [3]
1 | Nc1ccc2oc(-c3ccc(C(F)(F)F)cc3)nc2c1 [3-F] | significantly decreased the inflammatory edema; also recorded: significant effects on reducing the paw edema | significant anti-inflammatory potency | increased during the first 2 hours but decreased within the next 4 hours | improve the anti-inflammatory effects | increasing potent anti-inflammatory effect corresponding with the dosage increase | significantly decrease | significantly decrease; also recorded: significant effects on reducing the paw edema | highly selective for mPGES-1
2 | CC(C)c1ccc(-c2nc3cc(N)ccc3o2)cc1 [2-Me] | significantly decreased the inflammatory edema; also recorded: significant effects on reducing the paw edema | significant anti-inflammatory potency | increased slightly in the first 4 hours and decreases in the following 2 hours | improve the anti-inflammatory effects | improved its anti-inflammation activity | significantly decrease | significantly decrease; also recorded: significant effects on reducing the paw edema | highly selective for mPGES-1
